Active and inactive are the calls of the source.
How the values were obtained:
[1] = target: Peroxisome proliferator-activated receptor gamma/Nuclear receptor coactivator 1 (Homo sapiens, UniProt P37231); experiment: (§1) TR-FRET dose response biochemical High Throughput Screening assay for agonists of the steroid receptor coactivator 1 (SRC-1) recruitment by the peroxisome proliferator-activated receptor gamma (PPAR gamma): non-selective agonists. [Related pubchem assays (depositor defined):AID1300, AID1808, AID504735, AID631]; type: protein assay
[2] = target: Peroxisome proliferator-activated receptor gamma/Nuclear receptor coactivator 3 (Homo sapiens, UniProt P37231); experiment: as §1, with “3 (SRC-3)” for “1 (SRC-1)”, “assays: 1301 (Confirmation screen.), 1048 (Primary screen.)]” for “assays (depositor defined):AID1300, AID1808, AID504735, AID631]”; type: functional
[3] = target: Peroxisome proliferator-activated receptor gamma/Nuclear receptor coactivator 2 (Homo sapiens, UniProt P37231); experiment: TR-FRET dose response biochemical High Throughput Screening assay for agonists of the steroid receptor coactivator 2 (SRC-2) recruitment by the peroxisome proliferator-activated receptor gamma (PPAR gamma): non-selective agonists. [Related pubchem assays: 1297, 1032 ]; type: functional
[4] = growth suppression of PTEN-null colon cells, dose response, cell-based, HCT116 PTEN knockout (AID 1047); type: functional;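 also: HCT116 colon tumor cells with PTEN knocked out; cells exposed to compound for 60 hours before readout; potency for loss of cell viability measured by luminescence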
[5] = growth suppression of beta-catenin-knockout colon cells, dose response, cell-based, HCT116, human colon tumor (AID 1045); type: functional;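 also: HCT116 colon tumor cells with beta catenin knocked out; cells exposed to compound for 60 hours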
[6] = Luminescence Cell-Based Dose Retest to Confirm Inhibitors of Cancer Stem Cells. [Related pubchem assays (depositor defined):AID2717, AID2721]; type: functional; details: Homo sapiens
[7] = target: T1, Microphthalmia-associated transcription factor (Homo sapiens, UniProt O75030); experiment: TRPM1 promoter luciferase signal decrease, dose response, MITF inhibitor project, cell-based, SK-MEL-5, cherry-picked, set 3 (AID 493073); type: functional
T1 sequence (O75030 whole entry): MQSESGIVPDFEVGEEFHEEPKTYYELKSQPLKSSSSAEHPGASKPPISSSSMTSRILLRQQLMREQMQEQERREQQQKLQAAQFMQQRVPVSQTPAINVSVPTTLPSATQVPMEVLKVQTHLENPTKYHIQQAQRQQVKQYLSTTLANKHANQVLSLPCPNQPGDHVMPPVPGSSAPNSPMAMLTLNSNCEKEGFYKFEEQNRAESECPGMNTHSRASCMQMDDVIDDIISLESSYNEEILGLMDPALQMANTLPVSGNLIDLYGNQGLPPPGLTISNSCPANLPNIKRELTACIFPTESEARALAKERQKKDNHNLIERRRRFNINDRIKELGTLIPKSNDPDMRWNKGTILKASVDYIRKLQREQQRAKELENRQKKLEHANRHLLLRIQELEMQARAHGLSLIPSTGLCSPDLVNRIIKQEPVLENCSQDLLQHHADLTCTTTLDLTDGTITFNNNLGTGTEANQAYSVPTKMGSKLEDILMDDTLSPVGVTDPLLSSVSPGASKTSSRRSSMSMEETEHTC

INS1 = experiment: beta cell apoptosis inhibitors, cytokine rescue, dose response, luminescence, retest (AID 449756); type: functional, cell-based; details: Rattus norvegicus;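 also: cell death triggered by IL-1 beta plus TNF-alpha plus IFN-gamma mixture; protective hits raise ATP signal compared with cytokine alone wells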
Paired box protein Pax-8 = Paired box protein Pax-8 (Homo sapiens, UniProt Q06710); experiment: inhibitors of PAX8-driven TPO luciferase reporter, dose response, RMG-I cells, cherry-pick (AID 687027); type: functional, cell-based;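 also: luciferase reporter driven by Pax8 target thyroperoxidase promoter measured by SteadyGlo luminescence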
[8] = inhibitors of intracellular T. cruzi replication, confirmation, NIH3T3 host cells, beta-gal luminescence (AID 2044); type: functional, cell-based;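 also: intracellular parasites grown in NIH/3T3 mouse fibroblasts as host cells; luminescent beta-galactosidase reporter signal from transgenic T. cruzi replicating inside host cells; inhibitors lower the luminescence signal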
[9] = cytotoxicity toward NIH3T3 fibroblasts, dose response, counter-screen, cell-based, ATP luminescence, mouse fibroblasts (AID 2010); type: functional;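 also: cells exposed to compound for about 90 hours before reading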
Melanocortin receptor 4 = Melanocortin receptor 4 (Homo sapiens, UniProt P32245); experiment: MC4R antagonist potency on cAMP, dose response, cell-based, TR-FRET, biased antagonists (AID 602298); type: functional;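 also: antagonist potency against agonist-stimulated cAMP production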
[10] = nonselective inhibitors of cellular cAMP signaling, dose response, counter-screen for MC4R biased antagonist project, cell-based, TR-FRET cAMP detection (AID 602305); type: functional;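 also: U2OS cells stimulated with forskolin near its EC80 as the cAMP inducer; potency is for inhibition of forskolin-stimulated cAMP signaling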
Protein skinhead-1 = target: T2, Protein skinhead-1 (Caenorhabditis elegans, UniProt P34707); type: functional
T2 sequence (P34707 whole entry): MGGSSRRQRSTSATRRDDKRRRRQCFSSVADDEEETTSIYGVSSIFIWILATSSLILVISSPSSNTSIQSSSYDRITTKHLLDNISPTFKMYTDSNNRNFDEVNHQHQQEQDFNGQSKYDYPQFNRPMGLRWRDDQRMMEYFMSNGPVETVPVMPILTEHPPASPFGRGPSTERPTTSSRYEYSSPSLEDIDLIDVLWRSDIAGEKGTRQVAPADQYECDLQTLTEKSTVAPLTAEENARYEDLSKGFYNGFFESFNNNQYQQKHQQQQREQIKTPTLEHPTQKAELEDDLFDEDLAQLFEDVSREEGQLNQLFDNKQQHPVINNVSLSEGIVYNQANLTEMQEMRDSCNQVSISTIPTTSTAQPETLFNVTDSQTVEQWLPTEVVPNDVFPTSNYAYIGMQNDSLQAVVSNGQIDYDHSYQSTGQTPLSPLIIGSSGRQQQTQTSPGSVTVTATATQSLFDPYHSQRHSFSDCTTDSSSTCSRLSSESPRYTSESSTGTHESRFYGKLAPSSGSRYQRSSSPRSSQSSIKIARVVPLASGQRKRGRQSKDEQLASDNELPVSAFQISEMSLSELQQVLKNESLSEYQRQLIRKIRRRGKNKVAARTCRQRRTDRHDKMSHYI

[11] = target: T3, Short transient receptor potential channel 4 (Mus musculus, UniProt Q9QUQ5); experiment: mouse TRPC4 channel inhibitors, dose response, cell-based, HEK293 TRPC4/mu-opioid, Fluo-4 calcium (AID 434942); type: functional;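 also: potency of inhibitors blocking the TRPC4 calcium response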
T3 sequence (Q9QUQ5 whole entry): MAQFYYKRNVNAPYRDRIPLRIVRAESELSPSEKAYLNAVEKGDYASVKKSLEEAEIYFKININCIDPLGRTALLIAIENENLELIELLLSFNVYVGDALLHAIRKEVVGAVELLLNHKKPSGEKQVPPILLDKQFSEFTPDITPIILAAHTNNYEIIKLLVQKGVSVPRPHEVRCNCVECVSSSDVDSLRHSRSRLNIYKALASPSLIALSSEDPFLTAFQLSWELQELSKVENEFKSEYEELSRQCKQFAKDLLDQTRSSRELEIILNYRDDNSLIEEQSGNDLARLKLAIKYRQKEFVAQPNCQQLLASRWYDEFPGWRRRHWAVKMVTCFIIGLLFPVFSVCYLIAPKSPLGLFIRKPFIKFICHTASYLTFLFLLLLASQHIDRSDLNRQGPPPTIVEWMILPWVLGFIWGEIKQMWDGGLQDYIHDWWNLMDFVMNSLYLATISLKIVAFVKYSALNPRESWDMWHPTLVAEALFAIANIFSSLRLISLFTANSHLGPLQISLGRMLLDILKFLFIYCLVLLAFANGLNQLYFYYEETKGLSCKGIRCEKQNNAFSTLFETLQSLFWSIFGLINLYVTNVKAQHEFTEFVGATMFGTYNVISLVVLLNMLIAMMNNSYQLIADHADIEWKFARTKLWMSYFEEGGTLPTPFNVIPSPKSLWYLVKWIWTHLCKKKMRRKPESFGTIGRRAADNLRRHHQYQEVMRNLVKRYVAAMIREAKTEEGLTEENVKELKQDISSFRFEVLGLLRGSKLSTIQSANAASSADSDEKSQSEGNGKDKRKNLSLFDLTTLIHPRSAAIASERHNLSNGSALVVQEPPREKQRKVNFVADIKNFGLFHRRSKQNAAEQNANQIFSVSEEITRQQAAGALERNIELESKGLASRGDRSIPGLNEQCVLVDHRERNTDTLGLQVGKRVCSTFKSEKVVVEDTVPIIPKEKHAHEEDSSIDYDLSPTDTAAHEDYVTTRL

[12] = tested on: Streptococcus sp. 'group A'; experiment: growth inhibition of control SK(-) GAS strain, dose response, counter-screen for streptokinase expression inhibitor project, luminescence, kanamycin, BacTiterGlo, confirmation (AID 1900); type: functional, organism-based
Streptokinase A = target: T4, Streptokinase A (Streptococcus pyogenes serotype M1, UniProt P10520); experiment: S. pyogenes streptokinase expression inhibitors, potency, dose response, plasminogen activation absorbance, OD405 (AID 1914); type: functional, Streptococcus pyogenes M1 GAS;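 also: secreted streptokinase activity via plasminogen activation per viability signal from cell pellet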
T4 sequence (P10520 whole entry): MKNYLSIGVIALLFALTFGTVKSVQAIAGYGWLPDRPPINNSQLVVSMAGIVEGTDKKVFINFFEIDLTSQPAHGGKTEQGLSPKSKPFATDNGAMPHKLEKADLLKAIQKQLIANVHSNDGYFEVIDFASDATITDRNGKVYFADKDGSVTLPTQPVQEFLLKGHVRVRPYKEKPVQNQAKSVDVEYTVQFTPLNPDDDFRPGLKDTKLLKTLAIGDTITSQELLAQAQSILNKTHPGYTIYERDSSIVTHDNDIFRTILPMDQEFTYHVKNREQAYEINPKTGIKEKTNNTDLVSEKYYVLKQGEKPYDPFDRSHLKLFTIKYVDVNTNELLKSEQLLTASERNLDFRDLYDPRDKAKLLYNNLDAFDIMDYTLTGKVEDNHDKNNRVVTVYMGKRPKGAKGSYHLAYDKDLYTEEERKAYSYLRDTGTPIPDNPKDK

Streptococcus = experiment: Group A Streptococcus viability loss, dose response, counter-screen for streptokinase expression inhibitor project, luminescence, BacTiterGlo (AID 1915); type: functional, organism-based;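 also: potency for reduction of bacterial viability or growth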
[13] = inhibitors of firefly luciferase expression or activity, dose response, H4 neuroglioma cells, luminescence (AID 1990); type: functional, cell-based
[14] = Luminescence Cell-Based Dose Response HTS to Identify Inhibitors of 5'UTR Stem-Loop Driven Prion Protein mRNA Translation in H4 Neuroglioblastoma Cells. [Related pubchem assays: 1827 (Project Summary), 1813 (Primary HTS)]; type: functional
[15] = inhibitors of SNCA 5'UTR-driven reporter translation, confirmation, H4 neuroglioma cells, luminescence (AID 1988); type: functional, cell-based
[16] = cytotoxicity in HEK-293T cells, dose response, cytotoxicity control for TCR NF-kB inhibitor project, luminescence, T-cell screen hits (AID 489026); type: functional, cell-based;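 also: cells exposed to compound about 14 hours before the viability readout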
cells [17] = type: functional, cell-based
cells [18] = type: functional, cell-based; remark: listed apart in the source

Sequence of Melanocortin receptor 4 (P32245 whole entry): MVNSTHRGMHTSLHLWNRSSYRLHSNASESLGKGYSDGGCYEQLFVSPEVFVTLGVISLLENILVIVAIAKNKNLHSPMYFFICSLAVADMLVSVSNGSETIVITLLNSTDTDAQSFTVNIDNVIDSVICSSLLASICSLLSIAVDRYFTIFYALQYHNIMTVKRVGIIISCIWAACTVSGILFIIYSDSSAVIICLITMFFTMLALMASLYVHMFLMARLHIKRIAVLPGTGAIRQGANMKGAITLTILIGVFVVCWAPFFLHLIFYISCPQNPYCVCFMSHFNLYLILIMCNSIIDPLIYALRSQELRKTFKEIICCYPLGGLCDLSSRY
Sequence of Peroxisome proliferator-activated receptor gamma/Nuclear receptor coactivator 2 (P37231 whole entry): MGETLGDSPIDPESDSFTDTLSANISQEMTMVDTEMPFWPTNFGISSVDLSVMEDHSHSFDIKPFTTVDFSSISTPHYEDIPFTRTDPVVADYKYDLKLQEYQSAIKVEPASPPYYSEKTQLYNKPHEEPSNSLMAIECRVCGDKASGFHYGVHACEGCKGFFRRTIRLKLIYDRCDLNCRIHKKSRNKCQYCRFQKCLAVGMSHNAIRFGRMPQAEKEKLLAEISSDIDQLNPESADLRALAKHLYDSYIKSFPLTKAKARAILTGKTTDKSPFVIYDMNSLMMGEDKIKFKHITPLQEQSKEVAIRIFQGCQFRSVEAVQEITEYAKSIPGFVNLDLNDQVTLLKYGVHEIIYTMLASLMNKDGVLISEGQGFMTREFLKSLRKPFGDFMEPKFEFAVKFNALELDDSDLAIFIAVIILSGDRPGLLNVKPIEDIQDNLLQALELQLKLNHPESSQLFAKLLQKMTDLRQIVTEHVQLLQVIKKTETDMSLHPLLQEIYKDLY
Sequence of Peroxisome proliferator-activated receptor gamma/Nuclear receptor coactivator 2 (Q15596 whole entry, further chain): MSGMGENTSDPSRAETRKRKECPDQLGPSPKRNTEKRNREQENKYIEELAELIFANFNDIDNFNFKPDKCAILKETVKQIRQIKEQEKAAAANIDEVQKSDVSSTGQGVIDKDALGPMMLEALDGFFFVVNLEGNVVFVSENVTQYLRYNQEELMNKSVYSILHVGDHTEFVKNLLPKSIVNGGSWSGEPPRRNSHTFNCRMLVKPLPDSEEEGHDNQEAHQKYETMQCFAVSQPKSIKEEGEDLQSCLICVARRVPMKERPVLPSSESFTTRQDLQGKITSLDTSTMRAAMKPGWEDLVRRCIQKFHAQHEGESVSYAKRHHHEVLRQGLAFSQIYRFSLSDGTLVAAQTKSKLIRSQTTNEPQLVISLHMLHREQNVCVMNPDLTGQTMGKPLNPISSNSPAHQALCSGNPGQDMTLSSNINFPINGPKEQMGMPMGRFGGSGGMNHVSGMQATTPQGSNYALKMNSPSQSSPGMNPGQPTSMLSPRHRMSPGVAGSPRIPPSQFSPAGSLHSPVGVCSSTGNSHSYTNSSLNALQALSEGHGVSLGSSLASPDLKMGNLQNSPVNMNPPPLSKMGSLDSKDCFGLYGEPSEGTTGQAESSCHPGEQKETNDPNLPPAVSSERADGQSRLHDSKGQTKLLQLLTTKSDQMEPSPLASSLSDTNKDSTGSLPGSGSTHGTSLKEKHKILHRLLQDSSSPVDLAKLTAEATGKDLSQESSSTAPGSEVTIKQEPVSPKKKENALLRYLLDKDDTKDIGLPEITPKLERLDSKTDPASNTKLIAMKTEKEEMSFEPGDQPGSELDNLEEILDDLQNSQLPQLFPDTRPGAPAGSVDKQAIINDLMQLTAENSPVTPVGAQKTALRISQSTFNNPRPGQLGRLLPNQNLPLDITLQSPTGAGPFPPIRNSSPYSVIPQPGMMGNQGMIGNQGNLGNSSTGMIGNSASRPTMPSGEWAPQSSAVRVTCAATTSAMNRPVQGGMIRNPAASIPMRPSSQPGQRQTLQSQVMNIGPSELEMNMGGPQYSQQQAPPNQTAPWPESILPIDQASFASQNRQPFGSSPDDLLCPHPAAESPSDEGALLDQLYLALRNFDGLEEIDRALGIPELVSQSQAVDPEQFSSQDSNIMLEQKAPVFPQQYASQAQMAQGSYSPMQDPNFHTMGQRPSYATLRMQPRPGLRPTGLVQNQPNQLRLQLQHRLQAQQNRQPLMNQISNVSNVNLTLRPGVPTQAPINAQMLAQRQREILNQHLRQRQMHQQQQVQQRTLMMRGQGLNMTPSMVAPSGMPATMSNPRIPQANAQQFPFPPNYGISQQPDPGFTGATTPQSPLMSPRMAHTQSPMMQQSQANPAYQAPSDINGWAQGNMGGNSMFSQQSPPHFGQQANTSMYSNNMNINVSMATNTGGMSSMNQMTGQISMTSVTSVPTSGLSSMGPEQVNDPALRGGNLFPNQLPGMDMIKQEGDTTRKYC
Sequence of Peroxisome proliferator-activated receptor gamma/Nuclear receptor coactivator 1 (P37231 whole entry): as the sequence (P37231 whole entry) above
Sequence of Peroxisome proliferator-activated receptor gamma/Nuclear receptor coactivator 1 (Q15788 whole entry, further chain): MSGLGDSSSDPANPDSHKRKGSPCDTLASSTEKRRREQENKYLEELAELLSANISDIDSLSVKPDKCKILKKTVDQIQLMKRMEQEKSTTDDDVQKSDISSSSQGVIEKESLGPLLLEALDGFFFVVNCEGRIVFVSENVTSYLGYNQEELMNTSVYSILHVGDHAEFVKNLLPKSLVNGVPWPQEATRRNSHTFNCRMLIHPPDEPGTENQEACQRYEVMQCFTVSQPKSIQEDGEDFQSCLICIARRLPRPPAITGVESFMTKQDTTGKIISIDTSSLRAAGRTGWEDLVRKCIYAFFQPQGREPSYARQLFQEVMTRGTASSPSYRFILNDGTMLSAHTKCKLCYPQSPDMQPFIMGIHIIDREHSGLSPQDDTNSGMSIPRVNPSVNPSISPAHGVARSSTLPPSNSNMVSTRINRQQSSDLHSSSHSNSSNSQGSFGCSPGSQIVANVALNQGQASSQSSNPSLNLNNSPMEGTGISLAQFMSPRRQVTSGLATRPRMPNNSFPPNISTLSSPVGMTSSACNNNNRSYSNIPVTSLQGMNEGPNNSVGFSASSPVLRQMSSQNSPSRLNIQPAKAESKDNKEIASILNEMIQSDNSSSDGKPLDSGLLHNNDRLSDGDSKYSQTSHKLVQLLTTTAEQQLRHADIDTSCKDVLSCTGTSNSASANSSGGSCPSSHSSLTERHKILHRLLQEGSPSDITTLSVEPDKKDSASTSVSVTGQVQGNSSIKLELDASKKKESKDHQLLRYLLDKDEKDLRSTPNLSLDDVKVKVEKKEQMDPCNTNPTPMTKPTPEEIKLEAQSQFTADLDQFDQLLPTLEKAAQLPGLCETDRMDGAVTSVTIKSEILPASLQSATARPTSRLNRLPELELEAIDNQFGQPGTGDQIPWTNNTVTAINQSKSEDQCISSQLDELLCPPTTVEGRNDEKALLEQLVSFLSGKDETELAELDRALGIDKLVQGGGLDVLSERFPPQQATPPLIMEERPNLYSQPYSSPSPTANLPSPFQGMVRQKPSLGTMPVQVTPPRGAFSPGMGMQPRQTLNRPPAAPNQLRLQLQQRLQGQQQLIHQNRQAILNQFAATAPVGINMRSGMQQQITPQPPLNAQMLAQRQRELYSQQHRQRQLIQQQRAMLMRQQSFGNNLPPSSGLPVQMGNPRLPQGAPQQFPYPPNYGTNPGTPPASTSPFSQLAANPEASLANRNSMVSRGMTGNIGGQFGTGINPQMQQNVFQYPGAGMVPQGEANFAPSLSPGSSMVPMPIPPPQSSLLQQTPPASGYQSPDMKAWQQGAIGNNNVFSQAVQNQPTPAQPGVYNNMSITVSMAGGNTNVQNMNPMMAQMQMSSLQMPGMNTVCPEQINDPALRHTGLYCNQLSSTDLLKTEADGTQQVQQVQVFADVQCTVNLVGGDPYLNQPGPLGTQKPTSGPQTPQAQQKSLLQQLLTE
Sequence of Paired box protein Pax-8 (Q06710 whole entry): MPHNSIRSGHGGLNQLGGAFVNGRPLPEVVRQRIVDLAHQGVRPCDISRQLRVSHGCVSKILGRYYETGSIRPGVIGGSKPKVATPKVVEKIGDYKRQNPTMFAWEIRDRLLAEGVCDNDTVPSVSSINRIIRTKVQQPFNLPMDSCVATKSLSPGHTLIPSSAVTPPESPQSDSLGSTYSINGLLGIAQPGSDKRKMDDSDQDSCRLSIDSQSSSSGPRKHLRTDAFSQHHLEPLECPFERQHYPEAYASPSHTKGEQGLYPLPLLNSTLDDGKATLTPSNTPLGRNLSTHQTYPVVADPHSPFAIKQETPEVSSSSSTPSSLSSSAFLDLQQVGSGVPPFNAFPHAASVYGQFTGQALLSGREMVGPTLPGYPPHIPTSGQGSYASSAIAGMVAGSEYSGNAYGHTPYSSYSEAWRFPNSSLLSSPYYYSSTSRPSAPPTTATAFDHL

Structure (SMILES): CSc1oc(-c2ccccc2)nc1S(=O)(=O)c1ccc(C)cc1
- EC50 [1]: > 79.4 µM (inactive)
- EC50 [2]: > 79.4 µM (not active)
- EC50 [3]: > 79.4 µM (not active)

Structure (SMILES): Cc1ccc(NC(=O)/C=C/c2ccc([N+](=O)[O-])s2)c(C)c1
- EC50 [4]: 1.03 µM (active)
- EC50 [5]: 1 µM (active)
- AC50 [6]: 1.3 µM (active)
- AC50 [7]: 4.64 µM (active)
- AC50 (INS1): 4.69 µM (active)
- AC50 (Paired box protein Pax-8): 3.16 µM (active)

Structure (SMILES): Cc1nnc(-c2cccc(Br)c2)c2cn(-c3cccc(Br)c3)nc12
- EC50 [8]: 1.65 µM (active)
- EC50 [9]: > 60 µM (not active)
- IC50 (Melanocortin receptor 4): > 64.6 µM (inactive)
- IC50 [10]: > 64.6 µM (inactive)
- IC50 (Protein skinhead-1): > 100 µM (inactive)

Structure (SMILES): COCC(C)NC(C(=O)Nc1ccc(Cl)c([N+](=O)[O-])c1)c1ccccc1 (stereo unspecified)
- EC50 [11]: 5.96 µM (active)

Structure (SMILES): O=C(Nc1nccs1)c1cc(S(=O)(=O)N2CCOCC2)c(Cl)cc1Cl
- IC50 (Melanocortin receptor 4): > 64.6 µM (inactive)
- IC50 [10]: > 64.6 µM (inactive)

Structure (SMILES): CSc1c(SCc2ccccc2)cnn(Cc2ccccc2)c1=O
- EC50 [1]: 2.68 µM (active)
- EC50 [12]: 3.38 µM (active)
- EC50 [2]: > 79.4 µM (not active)
- EC50 (Streptokinase A): > 150 µM (not active)
- EC50 [3]: 8.09 µM (active)
- EC50 (Streptococcus): 34.3 µM (active)

Structure (SMILES): CC1CCN(c2c(NCc3ccc(C(=O)N4CCc5ccccc54)cc3)c(=O)c2=O)CC1
- EC50 [13]: > 60 µM (not active)
- EC50 [14]: 12.3 µM (active)
- EC50 [15]: 8.86 µM (active)
- IC50 [16]: > 80 µM (inactive)

Structure (SMILES): O=C(COC(=O)C(Cc1ccccc1)NC(=O)c1cccs1)NCc1ccccc1 (stereo unspecified)
- IC50 (Melanocortin receptor 4): 38.6 µM (inactive)
- IC50 [10]: > 64.6 µM (inactive)

Structure (SMILES): O=C(N/N=C\c1cc(Br)ccc1O)c1ccc(S(=O)(=O)N2CCCCC2)cc1
- EC50 (cells [17]): > 350 µM (not active)
- EC50 [8]: 0.758 µM (active)
- EC50 (cells [18]): > 350 µM (not active)
- EC50 [9]: > 60 µM (not active)
- AC50 [6]: 1.8 µM (active)
- AC50 [7]: 1.78 µM (active)
- AC50 (INS1): 0.809 µM (active)

Source: ChEMBL document CHEMBL1201862, “PubChem BioAssay data set” (2004)
